“Also recorded” adds a separate entry of the source. Structures can show the parent of a compound that is named as a salt.

In assay [1] the test system is quinpirole-injected rats. The assay can be described thus: Elevated plus maze (EPM) test, anxiety-like behavior, quinpirole OCD model. The format is in vivo, Wistar rats. The settings on record: fluoxetine 10 mg/kg peroral 6 weeks with quinpirole. The text has this: (§1) Experimental design was as given in Ref 12, incorporated herein in its entirety. The rats were randomly distributed into 5 different groups, with 6-8 rats per group (FIG. 1). Group 1, referred to as the “Vehicle” group, received the vehicle for a duration of 8 weeks. Group 2, denoted as the “Probiotic” group, received the peroral (PO) multistrain probiotic at a dose of 1× 10^10 CFU per rat for 8 weeks.

The subject of assay [2] is quinpirole-injected rats. The assay can be described thus: Marble burying test, quinpirole OCD model. Format: in vivo, Wistar rats. The settings on record: 10 min; quinpirole vs. control; quinpirole effect among rats that received probiotic or fluoxetine.
Source text: as §1

Assay [3] concerns quinpirole-injected rats. The assay can be described thus: Self-grooming test, quinpirole OCD model. Format: in vivo, Wistar rats. The note with it: 10 min; quinpirole vs. vehicle; treatments vs. quinpirole group.
Source text: as §1

The test system of assay [4] is quinpirole-injected rats. The assay can be described thus: Hole board test, quinpirole OCD model. The settings on record: 5-minute session; quinpirole vs. vehicle; treatments in quinpirole rats. The format is in vivo, Wistar rats.
Source text: as §1

The subject of assay [5] is nNOS. The assay can be described thus: Western blot analysis of nNOS in the frontal cortex. The settings on record: quinpirole vs. vehicle, treatments vs. quinpirole group. Format: in vivo, rat.
Source text: as §1
Radioimmunoprecipitation Assay (RIPA) buffer was used to homogenize the frontal cortex part of the rat brain and then resolved using sodium dodecyl sulfate-polyacrylamide gel electrophoresis (SDS-PAGE). The proteins were then transferred to a nitrocellulose membrane, blocked with 5% bovine serum albumin, and incubated with the primary antibody anti-NOS1 (sc-5302, 1:1000 dilution) overnight at 4° C., followed by incubation with horseradish peroxidase-conjugate secondary antibody at RT. The required proteins were then detected by using an ECL solution.

In assay [6] the test system is TNF-α. As to the kind of experiment: Real-time PCR of cytokine mRNA in the amygdala: TNF-α. The note with it: quinpirole vs. vehicle, treatments vs. quinpirole group. The format is in vivo, rat. As for the experimental part:
as §1
(§2) RT-PCR was performed to analyze the impact of a multistrain probiotic on cytokines mRNA expression (Ref 20, Rahman et al). Briefly, NucleoSpin® RNA isolation kit (#740955.50, DSS Takara Bio India Private Ltd) was used to extract RNA from the rat brain's amygdala. PrimeScript™ 1st strand cDNA synthesis kit (#6110A, DSS Takara Bio India Private Ltd) was used to process these RNA samples to cDNA. The 10 μL reaction mixture was prepared by mixing 5 μL of SYBR Green, 2 μL of the PCR primer (1 μL reverse+1 μL forward) (GCC Biotech, India, Private Ltd.). 1 μL of diluted cDNA template and 2 μL nuclease-free water. For each PCR test, the threshold cycle numbers were averaged across all samples. Using Δ/Δ Ct technique, the relative mRNA expression was calculated. The primers were designed (Table 6) using the software tools NCBI BLAST.

The test system of assay [7] is IL-6. The assay can be described thus: Real-time PCR of cytokine mRNA in the amygdala: IL-6. Format: in vivo, rat. The settings on record: quinpirole vs. vehicle, treatments vs. quinpirole group. As for the experimental part:
as §1, §2
A general note: Real-time PCR tracks product formation cycle by cycle.

In assay [8] the test system is CRP. As to the kind of experiment: Real-time PCR of cytokine mRNA in the amygdala: CRP. The format is in vivo, rat. The settings on record: quinpirole vs. vehicle, treatments vs. quinpirole group. As for the experimental part:
as §1, §2

Assay [9] deals with SCFAs. The assay can be described thus: Short-chain fatty acids (SCFAs) in fecal samples by GC-FID. Format: in vivo, rat. The settings on record: treatments given in quinpirole rats, compared to OCD, unit from Table 7.
Source text: as §1
The gas chromatography-flame ionization detection (GC-FID) was used to evaluate the effect of OCD on bacterial metabolites as described earlier in our publications (Ref 22, Rahman et al & Ref 23, Satti et al). Briefly, supernatant acidified with HCL (5 M) and then extracted in diethyl ether to estimate the SCFAs. The acetate, propionate, and butyrate levels were estimated by loading the known amount of each SCFA.

Assay [10] deals with colon. As to the kind of experiment: Colon histopathology (H&E and alcian blue-PAS staining). Format: in vivo, rat. The settings on record: quinpirole vs. control, treatments vs. quinpirole-recipient rats. As for the experimental part:
as §1
To examine the gut permeability, H&E and alcian-blue PAS staining were performed. The method is already described in our publications (Ref 20, 21, and 22), incorporated herein in its entirety. Briefly, sections were processed for deparaffinization with xylene, rehydration with alcohol, and then stained with H&E and alcian blue-PAS agents. Finally, slides were mounted with (DPX) followed by observations under a microscope (Leica-ICC50 W).

Consider `CNCCC(Oc1ccc(C(F)(F)F)cc1)c1ccccc1` (stereo not shown) [Fluoxetine, fluoxetine], for which the open-arms activity entry in [1] is on record as “improved”. In addition, the “number of marbles buried (increase by quinpirole)” value in [2] is given as “nonsignificant”. Further, the “self-grooming activity (number of grooming episodes, score)” value in [3] is “did not notice any change”. The head dipping activity result in assay [4] is reported as “less response”. Also, in [5], the “expression of nNOS” value is on record as “significantly reduced; also recorded: decreased”. Also, in assay [6], the “mRNA expression of TNF-α” value is given as “prevents”. Moreover, the “mRNA expression of IL-6” value in assay [7] is recorded as “prevents”. Besides, the “mRNA expression of CRP” value in [8] is “prevents”. Moreover, in [9], the “butyrate level” value was 3.39 ± 0.32 µg/mL and the “propionate level” value was 2.99 ± 0.55 µg/mL. In assay [10], the “number of mature goblet cells” value is listed as “significantly increased” and the “villus height/crypt depth ratio” value is recorded as “significantly increased”.
Take `CCCN1CCC[C@@H]2Cc3n[nH]cc3C[C@H]21` [Quinpirole, (−)-Quinpirole hydrochloride]: the “mRNA expression of CRP” value in assay [8] is given as “significant increase”.
